In article PMC10216581, “Homogeneous, Synthetic, Non-Saccharide Glycosaminoglycan Mimetics as Potent Inhibitors of Human Cathepsin G” (Biomolecules, 2023):
Several values for one entry are separate records, joined by “and”; a condition that tells them apart may be missing. Identical values can stand only once. Entries after “also recorded” stand apart in the source; their conditions may differ. Marks after values point to notes of the source that are not given here.

Key:
[1] = test system: human neutrophil elastase (HNE); set-up: method as in PMID 23735578; details: previous studies; cited from earlier work
[2] = test system: factor XIIa; set-up: method as in PMID 9790687; details: previous study; read-out: inhibitory potency; cited from earlier work
[3] = biological target: T1, Human CatG (Homo sapiens, UniProt P08311); experiment: Salt dependence of CatG inhibition by NSGM 25 (ionic/nonionic binding energy); assay type: biochemical
T1 construct: purchased Elastin Products Company (Owensville, MO, USA)
T1 sequence (P08311 21-255): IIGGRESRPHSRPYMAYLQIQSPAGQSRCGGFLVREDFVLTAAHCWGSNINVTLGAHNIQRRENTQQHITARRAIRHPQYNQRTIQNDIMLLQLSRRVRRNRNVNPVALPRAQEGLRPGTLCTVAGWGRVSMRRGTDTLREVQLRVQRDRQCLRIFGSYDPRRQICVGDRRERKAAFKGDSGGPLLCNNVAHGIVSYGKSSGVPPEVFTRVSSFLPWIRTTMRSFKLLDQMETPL
Protocol: Each KI value was calculated from the corresponding IC50 using the Cheng–Prusoff equation [43]. A double-log plot of the KI against Na^+ concentration was prepared and analyzed using the equation log KI=log KI,NONIONIC+ZψlogNa^+ . Here, the slope corresponds to the number of ion-pair interactions (Z) and the counterions released per negative charge upon ion binding (ψ = 0.8), while the intercept corresponds to the nonionic affinity (KI,NONIONIC). The contributions of ionic and nonionic binding energies to the interactions were obtained from the slope and intercept of the plot in Excel.
A fundamental point being advanced in NSGM-based mimicry is the presumed increase in hydrophobic forces contributing to binding affinity. As is well-recognized, heparin and other GAGs utilize primarily electrostatic forces in binding to proteins. […] The resolution of overall binding energy into ionic and nonionic contributions is typically achieved by performing affinity measurements as a function of the ionic strength of the buffer. According to the protein–polyelectrolyte theory, the two contributions can be resolved from a double-log plot of binding affinity against the Na^+ concentration, as defined by the equation log KI = log KI,NONIONIC + Zψ × log [Na^+], where Z represents the number of salt interactions, and ψ is the proportion of Na^+ released per anion upon ligand binding and is equal to 0.8 for heparin [55].
Figure 6 Salt dependence of CatG inhibition by NSGM 25. (A) Salt-dependent direct inhibition of CatG by NSGM 25. Data were obtained using substrate S-7388 in a chromogenic substrate hydrolysis assay. Solid lines represent sigmoidal dose–response analysis (Equation (1)) of the data to obtain IC50, ΔY%, and HS. Errors represent ± 1 S.E. (B) A double-log plot of the KI calculated using Cheng–Rusoff equation for uncompetitive inhibition against the concentration of salt.
The measured IC50s of our allosteric inhibitors are distinct from inhibition constants KI, which are thermodynamic constants. Cheng and Prusoff provided a mathematical foundation for the transformation of IC50s into KIs for uncompetitive inhibitors. In their formulation, KI is equal to IC50 × [S]/(KM + [S]), which is directly applicable to our study. Thus, it becomes possible to utilize the linear double-log analysis described above for our NSGM 25, which is an uncompetitive inhibitor. […] Linear regression yielded a slope of 2.94 and an intercept of −4.32 (Table 5). Whereas the former corresponds to an ionic binding energy of […] at 37 °C and 100 mM salt, the latter yields a nonionic binding energy of 6.12 kcal/mol. […] Such important roles of two forces have not been observed earlier. More importantly, the higher nonionic component bodes well for the discovery of second-generation inhibitors with higher selectivity.

[4] = test system: human plasma; experiment: Activated partial thromboplastin time (aPTT) clotting assay; assay type: biochemical
Protocol: (§1) The impacts of NSGM 25 on activated partial thromboplastin time (aPTT) and the prothrombin time (PT) of human plasma were measured employing a standard one-stage recalcification assay at 37 °C, as previously reported. CaCl2 and thromboplastin-D were used to initiate clotting in aPTT and PT assays, respectively, in the absence and presence of NSGM 25, and the time to clot was recorded accordingly.

[5] = test system: factor IXa; set-up: method as in PMID 9790687; details: previous study; read-out: inhibitory potency; cited from earlier work
[6] = biological target: T1, Human CatG; experiment: Michaelis-Menten kinetics of CatG hydrolysis of chromogenic substrate S-7388 in the presence of NSGM 25; assay type: biochemical
Protocol: […] The data were analyzed using the standard Michaelis–Menten equation in Sigmaplot version 12 to determine the KM and VMAX.
Figure 5 Kinetics of inhibition of 60 nM CatG by NSGM 25. Michaelis–Menten kinetics of CatG hydrolysis of chromogenic substrate (S-7388) in the presence of NSGM 25. Experiments were performed at 37 °C in 20 mM tris buffer, pH 7.4. Solid lines represent nonlinear regression analysis of the data using the standard Michaelis-Menten to calculate KM and VMAX.

[7] = test system: human plasma; experiment: Prothrombin time (PT) clotting assay; assay type: biochemical
Protocol: as §1

[8] = test system: factor Xa; set-up: method as in PMID 9790687; details: previous study; read-out: inhibitory potency; cited from earlier work
[9] = test system: factor XIa; set-up: method as in PMID 9790687; details: previous study; read-out: inhibitory potency; cited from earlier work
[10] = test system: human plasmin; set-up: method as in PMID 9790687; details: previous studies; cited from earlier work
[11] = test system: thrombin; set-up: method as in PMID 9790687; details: previous study; read-out: inhibitory potency; cited from earlier work
[12] = linear regression of log KI versus log[Na+]
[13] = human plasma, concentration as high as 1 mM
[14] = 50 nM NSGM 25, substrate S-7388, pH 7.4, 37 °C

O=c1c(OS(=O)(=O)O)c(-c2ccc(OS(=O)(=O)O)c(OS(=O)(=O)O)c2)oc2cc(OS(=O)(=O)O)cc(OCc3ccc(COc4cc(OS(=O)(=O)O)cc5oc(-c6ccc(OS(=O)(=O)O)c(OS(=O)(=O)O)c6)c(OS(=O)(=O)O)c(=O)c45)cc3)c12 [NSGM 25]
IC50 [1]: ~230 nM
IC50 [2]: > 150000 nM
HS ([3]; 50 mM NaCl): 1.3 ± 0.4
IC50 ([3]; 50 mM NaCl): 43 ± 10 nM
ΔY ([3]; 50 mM NaCl): 87.7 ± 7.3 ^b %
IC50 ([3]; 50 mM NaCl, pH 7.4, 37 °C): 42.7 ± 10 nM
Ki ([3]; 50 mM NaCl, calculated from IC50 with Cheng-Prusoff equation (uncompetitive)): 10.9 ± 3.9 nM
HS ([3]; 100 mM NaCl): 0.7 ± 0.1
IC50 ([3]; 100 mM NaCl, pH 7.4, 37 °C): 52.6 ± 12.2 nM
Ki ([3]; 100 mM NaCl, calculated from IC50 with Cheng-Prusoff equation): 19.2 ± 5.3 nM
HS ([3]; 150 mM NaCl): 1.6 ± 0.3
ΔY ([3]; 150 mM NaCl): 74.4 ± 2.9%
IC50 ([3]; 150 mM NaCl, pH 7.4, 37 °C): 319 ± 44.5 nM
Ki ([3]; 150 mM NaCl, calculated from IC50 with Cheng-Prusoff equation): 148 ± 54 nM
HS ([3]; 200 mM NaCl): 2.0 ± 0.5
ΔY ([3]; 200 mM NaCl): 73.2 ± 4.9%
IC50 ([3]; 200 mM NaCl, pH 7.4, 37 °C): 3450 ± 517 nM
Ki ([3]; 200 mM NaCl, calculated from IC50 with Cheng-Prusoff equation): 1670 ± 480 nM
ionic binding energy ([3]; 37 °C and 100 mM salt): 4.88 kcal/mol
loss in inhibition potency ([3]; NaCl increased from 50 mM to 200 mM): ~ 80 fold
ΔGNON-IONIC (nonionic binding energy) ([3]; from intercept of double-log plot): 6.12 kcal/mol
Intercept [3, 12]: −4.32
Slope [3, 12]: 2.94
ΔGIONIC ([3]; share of binding energy): 44.4%
ΔGNON-IONIC ([3]; share of binding energy): 55.6%
aPTT (EC2X) ([4]; concentration required to double the aPTT of pooled human plasma): >1000 µM
effect on aPTT clotting time [4, 13]: did not impact; also recorded: did not extend
IC50 [5]: > 150000 nM
Km [6, 14]: 2180 ± 270 µM
VMAX [6, 14]: 52.9 ± 4.1 mAu/min
Km ([6]; 100 nM NSGM 25): 1310 ± 60 µM
VMAX ([6]; 100 nM NSGM 25): 31.0 ± 0.8 mAu/min
Km ([6]; 150 nM NSGM 25): 870 ± 200 µM
VMAX ([6]; 150 nM NSGM 25): 21.1 ± 2.1 mAu/min
Km ([6]; 200 nM NSGM 25): 800 ± 110 µM
VMAX ([6]; 200 nM NSGM 25): 17.0 ± 1.0 mAu/min
Km ([6]; 400 nM NSGM 25): 770 ± 300 µM
VMAX ([6]; 400 nM NSGM 25): 12 ± 2 mAu/min and 12.4 ± 2.1 mAu/min
mechanism of CatG inhibition ([6]; from simultaneous reduction in KM and VMAX): uncompetitive
PT (EC2X) ([7]; concentration required to double the PT of pooled human plasma): >1000 µM
effect on PT clotting time [7, 13]: did not impact; also recorded: did not extend
IC50 [8]: > 150000 nM
IC50 [9]: > 150000 nM
IC50 [10]: ~6300 nM
IC50 [11]: > 150000 nM
